Measurements from US20220317111A1, “BIOASSAY METHOD” (KASHIV BIOSCIENCES, LLC, priority 2021, published 2022).

Legend:
[1] = target: T1, Human bradykinin B1 receptor cell line (Homo sapiens, UniProt P46663); assay: Bradykinin B1 receptor antagonistic activity by intracellular calcium assay (Fluo-4, LDBK agonist); type: cell-based; settings: human B1 receptor cells, Fluo-4 calcium assay, agonist LDBK at EC80, with washing step
T1 sequence (P46663 1-353): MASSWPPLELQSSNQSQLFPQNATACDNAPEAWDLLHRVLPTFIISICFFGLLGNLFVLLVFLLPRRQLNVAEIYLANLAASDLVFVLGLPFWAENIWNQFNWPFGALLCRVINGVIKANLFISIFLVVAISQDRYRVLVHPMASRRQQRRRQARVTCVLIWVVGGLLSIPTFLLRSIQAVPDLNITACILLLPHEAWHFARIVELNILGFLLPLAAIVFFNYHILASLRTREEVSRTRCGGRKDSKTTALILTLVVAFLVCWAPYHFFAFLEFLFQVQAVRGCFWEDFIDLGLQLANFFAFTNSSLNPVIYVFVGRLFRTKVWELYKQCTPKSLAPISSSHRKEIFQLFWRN
Description: (§1) Human bradykinin B1 receptor cell line (Product #ES-091-C), Human bradykinin B2 receptor aequorin cell line (Product #ES-090-A), Fluo-4 calcium assay kits (Molecular Probes).
(§2) Agonist for B1 receptor cell line is Lys-[Des-Arg9]-Bradykinin (LDBK) and antagonist is R715. Agonist for B2 receptor cell line is BK (bradykinin) and antagonist is HOE140. All the agonist and antagonist were procured from TOCRIS. Dye loading solution was prepared by adding 10 mL of assay buffer and 100 μL of the probenecid stock solution (provided in the Kit) to one bottle of component A (dye concentrate). 0.4% Triton X-100 (4X) was used as positive control (PC) and was prepared by adding 38 uL of Triton X-100 in 10 mL of working assay buffer (WAB).
(§3) Human bradykinin B1 receptor cell line (B1) and human bradykinin B2 receptor aequorin cell line (B2) was procured from PerkinElmer, Waltham, Mass. B1 cells were cultured and maintained in Ham's F-12 medium (Gibco) supplemented with 10% fetal bovine serum (FBS) (Gibco) and 0.4 mg/ml Geneticin (Gibco) in a humidified incubator at 37° C. with 5% CO2. B2 cells were cultured and maintained in Ham's F-12 medium (Gibco) supplemented with 10% fetal bovine serum (FBS) (Gibco), 0.4 mg/ml Geneticin (Gibco) and 5 μg/ml Puromycin (Gibco) in a humidified incubator at 37° C. with 5% CO2. All the test compounds were weighed and dissolved in DMSO and a stock of 20 mM was prepared and stored at −20° C.
(§4) Bradykinin receptor antagonist screening assay was performed using Fluo-4 calcium assay kits by following the manufacturer's instruction. Briefly, approximately 30,000 of human either B1 or B2 cells were seeded in each well of a 96 black well plate. After 24 h, the growth media was removed and washed with 200 μL of assay buffer provided in the Fluo-4 calcium assay kits. Thereafter, 100 uL of Flu-4 dye-loading solution was added in each well of 96 well plate and incubated it at 37° C. for about 30 min. After about 30 minutes of incubation at room temperature, dye loading solution was removed and washed with 200 μL of WAB (mentioned in materials). Post washing, into 100 uL of WAB, 50 uL of WAB or 50 uL of cell line receptor specific antagonist (mentioned in materials) or test compound dilutions were added in 96 well plate. The plates were incubated for 20 min at room temperature with shaking at 300 rpm. At the end of the incubation time, the plates were inserted into the CLARIOstar microplate reader and % gain was adjusted. Thereafter, the plates were read at Ex/Em=494/516 nm for baseline RFU (Range 1). Thereafter, the microplate reader was paused at 11th cycle and 50 uL of 4× (EC80) cell line specific agonist (mentioned in materials) or PC dilution prepared in WAB was added and manually the plates were shaked for 5 sec. Again, the plates were read at Ex/Em=494/516 nm (Range 2).
(§5) Delta RFU was calculated using the formula:
(§6) Delta RFU=Range 2 avg RFU−Range 1 avg RFU
(§7) Based on the data the IC50 or Percent Inhibition of all the compounds was calculated.
(§8) Note: The above assay was performed using plate (flying) mode function of CLARIOstar.

[2] = target: T2, Human bradykinin B2 receptor aequorin cell line (Homo sapiens, UniProt P30411); assay: Bradykinin B2 receptor antagonistic activity by intracellular calcium assay (Fluo-4, BK agonist); type: cell-based; settings: for IC50: human B2 receptor cells, Fluo-4 calcium assay, agonist BK at EC80, with washing step
T2 sequence (P30411 1-391): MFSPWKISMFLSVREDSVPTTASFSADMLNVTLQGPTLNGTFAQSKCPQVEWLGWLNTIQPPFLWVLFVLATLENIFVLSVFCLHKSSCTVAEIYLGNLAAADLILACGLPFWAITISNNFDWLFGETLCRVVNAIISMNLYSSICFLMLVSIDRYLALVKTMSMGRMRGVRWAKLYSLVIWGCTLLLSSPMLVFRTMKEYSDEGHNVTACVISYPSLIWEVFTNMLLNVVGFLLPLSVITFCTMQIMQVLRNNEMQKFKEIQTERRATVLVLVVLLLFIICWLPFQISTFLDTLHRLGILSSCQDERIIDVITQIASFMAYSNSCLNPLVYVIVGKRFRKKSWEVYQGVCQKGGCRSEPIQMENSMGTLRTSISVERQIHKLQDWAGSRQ
Description: as §1, §2, §3, §4, §5, §6, §7, §8

Molecule | IC50 [1] [µM] | IC50 [2] [µM] | IC50 without washing steps relative to IC50 with washing step [2]
Nc1ccc(/N=N/c2ccccc2)c(N)n1 [Compound I] | 32.4 | 31.9 | –
Nc1ccc(/N=N/c2ccccc2O)c(N)n1 [Compound IV] | 8.4 | 10.9 | –
Nc1ccc(/N=N/c2ccc(O)cc2)c(N)n1 [Compound III] | 27.1 | 21.3 | –
HOE-140 [reference compound] | – | – | approximately 15 fold
Nc1nc(N)c(/N=N/c2ccccc2)cc1O [Compound II] | 12.5 | 13.2 | –
Nc1nc(N)c(/N=N/c2ccc(O)cc2)cc1O [Compound V] | 29.5 | > 100 | –
